Experimental findings from paper PMC6222820, “Synthesis of New Triarylpyrazole Derivatives Possessing Terminal Sulfonamide Moiety and Their Inhibitory Effects on PGE2 and Nitric Oxide Productions in Lipopolysaccharide-Induced RAW 264.7 Macrophages” (Molecules : A Journal of Synthetic Chemistry and Natural …, 2018) are described below.

In data set [1] the test system is LPS-induced RAW 264.7 macrophages. The experiment in a line: Nitric oxide (NO) production inhibition in LPS-induced RAW 264.7 macrophages (nitrite determination). The class given is cell-based. The conditions noted are these: for Nitric Oxide % Inhibition / inhibition at 1 µM / inhibition at 5 µM / inhibition at 10 µM: LPS-induced RAW 264.7 macrophages; for IC50: means ± SD of three independent experiments, read-out: NO (IC50); for inhibition at 1 µM: RAW264.7, 1 µM; for inhibition at 5 µM: RAW264.7, 5 µM; for inhibition at 10 µM: RAW264.7, 10 µM. The method, then: The ability of a certain molecule to inhibit the production of inflammatory mediator(s) is one of successful approach to treatment both chronic and acute inflammation.
(§1) Cell culture and sample treatment were performed as reported in the literature. The 3-(4,5-dimethylthiazol-2-yl)-2,5-diphenyltetrazolium bromide (MTT) assay for cell viability followed the procedure previously described in the literature. Nitrite determination was carried as described in the literature, and the PGE2 assay was carried as previously described.

The next data set deals with RAW 264.7 macrophages. The experiment in a line: MTT assay for cell viability / cytotoxicity. The class given is cell-based. The following applies: means ± SD of three independent experiments. The method, then: (§2) In addition to NO inhibition, the cytotoxic activity of compounds 1a–i, 2a–i, 3a–h, and 4a–h in RAW 264.7 macrophages were measured using the 3-(4,5-dimethylthiazol-2-yl)-2,5-diphenyltetrazolium bromide (MTT) assay to check whether the effects on the production of NO was caused by nonspecific cytotoxicity.
as §1

Data set [2] is described as follows: MTT assay for cell viability / cytotoxicity. The following applies: mouse, RAW 264.7 macrophages, means ± SD of three independent experiments. The class given is cell-based. The method, then: as §2, §1
Background: Tetrazolium dyes change colour on reduction, which living cells bring about.

For data set [3], the system named is LPS-induced RAW 264.7 macrophages. In words: PGE2 production inhibition in LPS-induced RAW 264.7 macrophages. Format: cell-based. The following applies: means ± SD of three independent experiments; for inhibition at 1 µM: RAW264.7, 1 μM; for inhibition at 5 µM: RAW264.7, 5 μM; for inhibition at 10 µM: RAW264.7, 10 μM. The method, then:
Compounds 1b, 1g, 2a, and 2c were able to inhibit more than 50% of the prostaglandin production at a dose 5 μM. The five compounds were able to reduce PGE2 production by over 75% at a dose of 10 μM.
as §1

The next data set addresses T1, iNOS (Mus musculus, UniProt P29477).
T1 construct: endogenous in cells; host or cells: RAW 264.7 macrophages, LPS-stimulated
In words: iNOS enzyme activity in LPS-pretreated cells (Griess reaction). Format: cell-based. The following applies: 5, 10, or 20 μM for 12 h after LPS (1 µg/mL) 12 h. The method, then:
Figure 4 Effect of compounds 1b, 1d, 1g, 2a, and 2c on iNOS activity. Following pretreatment with lipopolysaccharide (LPS, 1 µg/mL) for 12 h and wash with phosphate buffer solution (PBS), cells were treated with 1g (5, 10, or 20 μM) for 12 h N^6-(1-Iminoethyl)-L-lysine. (L-NIL) (40 μM) was used as the positive control in the assay. Levels of NO in culture media were quantified using the Griess reaction assay. Data are presented as the means ± SD of three independent experiments. # p < 0.05 versus the control cells; *** p < 0.001 versus LPS-stimulated cells; * statistical significances were compared using ANOVA and Dunnett’s post hoc test.
(Griess reagent forms a coloured azo dye with nitrite.)

Data set [4] relates to inducible nitric oxide synthase (iNOS). The experiment in a line: LPS-induced iNOS protein expression (SDS-PAGE / immunoblot of cellular lysates). Format: cell-based. The conditions noted are these: 20 µM; pretreatment 1 h, then LPS (1 μg/mL) 24 h; β-actin reference. The method, then:
As a result of their activity against both NO and PGE2 production and low cellular toxicity, compounds 1b, 1d, 1g, 2a, and 2c were tested for their inhibitory effect on the expression of both iNOS and COX-2. The cellular lysates were prepared from the with- and without-pretreatment tested compounds (5, 10, 20 μM) for one hour and then with LPS (1 μg/mL) for 24 h, using β-actin as a reference. […] Compound 1g might express its inhibitory effect on NO production mainly through inhibition of iNOS protein expression and partially through inhibition of iNOS enzyme activity.
Figure 3 Inhibitory activity of compounds 1b, 1d, 1g, 2a, and 2c on inducible nitric oxide synthase (iNOS) and Cyclooxygenase 2 (COX-2) Cellular lysates were prepared from the with/without pretreatment tested compound (5, 10, and 20 μM) for one hour and then with LPS (1 μg/mL) for 24 h. Total cellular proteins were resolved by sodium dodecyl sulphate-polyacrylamide gel electrophoresis (SDS-PAGE), transferred to Polyvinylidene fluoride (PVDF) membranes, and detected with specific iNOS and COX-2 antibodies. β-actin was used as an internal control.

The mark [5] stands for this setting: Mus musculus, RAW264.7, nitric oxide production.
Setting [6] is: Mus musculus, RAW264.7, LPS-induced RAW 264.7 macrophages.

By IC50 is commonly meant the concentration that inhibits the measured activity by half. A word on the inhibition: it is how much of the control response was suppressed. A high value points to a strong effect. The term melting point denotes the temperature of the solid-liquid transition.

“Also recorded” adds a separate entry of the source.

On to `COc1cccc(-c2nn(-c3ccccc3)cc2-c2ccnc(NCCNS(=O)(=O)c3ccc(C)cc3)c2)c1` [Compound 1f, N-(2-((4-(3-(3-Methoxyphenyl)-1-phenyl-1H-pyrazol-4-yl)pyridin-2-yl)amino)ethyl)-4-methyl benzenesulfonamide], for which the “Nitric Oxide % Inhibition” value in data set [1] (1 µM) came out at 16.29 ± 0.10%; in data set [1] (5 µM), 26.54 ± 0.65%; in data set [1] (10 µM), 53.09 ± 2.10%. Further, the figures for the IC50 (in data set [1] (nitric oxide production); with RAW 264.7 macrophages) were 9.42 ± 0.12 µM and 291 ± 1.12 µM, respectively.
For `COc1cccc(-c2nn(-c3ccccc3)cc2-c2ccnc(NCCNS(=O)(=O)c3ccc(Br)cc3)c2)c1` [Compound 1b, 4-Bromo-N-(2-((4-(3-(3-methoxyphenyl)-1-phenyl-1H-pyrazol-4-yl)pyridin-2-yl)amino)ethyl)benzenesulfonamide], the melting point is 136 to 138 °C. In data set [1] (Mus musculus), this molecule gave an inhibition at 1 µM of 12.05 ± 0.11%, an inhibition at 5 µM of 24.2 ± 0.98% and an inhibition at 10 µM of 68.7 ± 2.47%. For the same molecule, in data set [1] (setting [5]), the IC50 was 7.9 ± 0.41 µM. The molecule further yielded an IC50 in data set [2] of 254.2 ± 2.54 µM. For the same molecule, the midpoint of inhibition in data set [3] (LPS-induced RAW 264.7 macrophages), the IC50, lay at 4.75 ± 0.25 µM. In data set [3] (Mus musculus), this molecule displayed an inhibition at 1 µM of 16.2 ± 0.79%, an inhibition at 5 µM above 50% and an inhibition at 10 µM of 76.9 ± 1.34%. This molecule also came in with an IC50 in data set [3] (setting [6]) of 4.72 µM. Also, the “Inhibition of iNOS enzyme activity” value at iNOS is listed as “slightly inhibited iNOS enzyme activity in a dose-dependent manner”. Also, the “Inhibition of iNOS expression” value in data set [4] is given as “partial inhibitory effect; also recorded: potential iNOS inhibitory effect”.
As for `COc1cccc(-c2nn(-c3ccccc3)cc2-c2ccnc(NCCNS(=O)(=O)c3ccc(F)cc3)c2)c1` [Compound 1d, 4-Fluoro-N-(2-((4-(3-(3-methoxyphenyl)-1-phenyl-1H-pyrazol-4-yl)pyridin-2-yl)amino)ethyl)benzenesulfonamide], the melting point was in the range of 155 to 156 °C. In data set [1] (Mus musculus), this molecule displayed an inhibition at 1 µM of 19.79 ± 0.14%, an inhibition at 5 µM of 29.4 ± 0.77% and an inhibition at 10 µM of 61.3 ± 1.33%. For the same molecule, the IC50 in data set [1] (setting [5]) is 8.2 µM. Besides, the IC50 in data set [1] (nitric oxide production) amounted to 8.23 ± 0.32 µM. In data set [2], this molecule showed an IC50 of 169.2 ± 1.64 µM. Also, in data set [3] (Mus musculus), 1 µM produced 10.3 ± 0.81% inhibition, the inhibition at 5 µM came out at 49.6 ± 1.25% and the inhibition at 10 µM is 85.8 ± 2.64%. This molecule also showed an IC50 in data set [3] (setting [6]) of 5.06 ± 0.21 µM. At iNOS, the “Inhibition of iNOS enzyme activity” value is “slightly inhibited iNOS enzyme activity in a dose-dependent manner”. Further, in data set [4], the “Inhibition of iNOS expression” value is listed as “partial inhibitory effect; also recorded: potential iNOS inhibitory effect”.
Take `COc1cccc(-c2nn(-c3ccccc3)cc2-c2ccnc(NCCNS(=O)(=O)c3ccc(C(F)(F)F)cc3)c2)c1` [Compound 1g, N-(2-((4-(3-(3-Methoxyphenyl)-1-phenyl-1H-pyrazol-4-yl)pyridin-2-yl)amino)ethyl)-4-(trifluoromethyl)benzenesulfonamide]: the inhibition at 1 µM in data set [1] (Mus musculus) came to 10.98 ± 0.07%; in data set [3] (Mus musculus), 19.9 ± 0.89%. Also, the inhibition at 5 µM in data set [1] (Mus musculus) was 23.6 ± 0.54%; in data set [3] (Mus musculus), above 50%. Also, the inhibition at 10 µM came to 60.8 ± 1.75% in data set [1] (Mus musculus) and 79.3 ± 2.19% in data set [3] (Mus musculus). Also, the IC50 in data set [1] (setting [5]) came out at 8.55 ± 0.14 µM; in data set [2], 261.6 ± 1.57 µM; in data set [3] (setting [6]) it was 4.55 ± 0.39 µM. The “Inhibition of iNOS enzyme activity” value on iNOS was “slightly inhibited iNOS enzyme activity in a dose-dependent manner”. Besides, in data set [4], the “Inhibition of iNOS expression” value is “complete inhibition; also recorded: potential iNOS inhibitory effect”.
